Tests used:
[1] = biological target: T1, PTP1B in HEPG2 whole cells (Homo sapiens, UniProt P18031); assay: Labeling of endogenous PTP1B in HEPG2 whole cells; type: cell-based; conditions: mass balance on total counts, 5 nM probe
T1 construct: Labeling of Endogenous PTP1B in HEPG2 Cell Lysate; endogenous in cells; host or cells: HepG2 (human hepatoma, ATCC)
T1 sequence (P18031 1-435): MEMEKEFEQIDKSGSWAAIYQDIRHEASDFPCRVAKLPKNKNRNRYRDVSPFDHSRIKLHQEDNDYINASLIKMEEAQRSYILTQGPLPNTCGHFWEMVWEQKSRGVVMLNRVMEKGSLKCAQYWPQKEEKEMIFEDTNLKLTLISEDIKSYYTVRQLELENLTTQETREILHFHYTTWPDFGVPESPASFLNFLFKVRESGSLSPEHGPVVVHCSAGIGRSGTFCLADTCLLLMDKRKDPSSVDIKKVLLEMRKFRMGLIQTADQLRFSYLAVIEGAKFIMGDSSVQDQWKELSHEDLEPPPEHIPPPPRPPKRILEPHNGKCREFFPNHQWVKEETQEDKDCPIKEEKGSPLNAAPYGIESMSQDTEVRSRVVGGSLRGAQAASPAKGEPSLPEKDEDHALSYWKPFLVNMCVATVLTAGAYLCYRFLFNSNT
Description: Human hepatoma cells (HepG2) were obtained from American Type Culture Collection and maintained in regular MEM containing 10% FBS and 1% antibiotics at 37° C., 5% CO2. For photoprobe experiments, cells (2×10^4) were grown until 80% confluence in 6-well plates and serum starved for 14 hours by incubating in MEM with 1% antibiotics without FBS.
HEPG2 cells were grown to ˜80% confluency in 6-well dishes. Media was removed and washed twice with Hanks-Hepes buffer (15 mM Hepes). For HepG2 lysate studies, the cells were lysed on ice for 15 minutes using 1 ml lysate buffer (50 mM Tris pH 7.4, 150 mM NaCl, 1% Triton X-100, 5 mM EDTA, 5 mM DTT, Complete™ protease inhibitor tablet). […] The protein concentration of the lysates was determined by the method of Lowry (detergent compatible).
PTP1B was immunoprecipitated from HepG2 cell lysates (1 ml of 1 mg/ml) using 3.5 ug of anti-PTP1B antibody (BDT) overnight at 4° C. with rotation. […] For autoradiogram detection of radioactivity, the gels were dried and exposed to BioMax MS film with an intensifying screen at −80° C. Protein bands were quantified using a scanning densitometer (Bio-Rad).
The compound of Example 1 at various concentrations was incubated with HEPG2 whole cells for 30 min and was irradiated on ice for 15 min. The cells were then lysed, and labeled PTP1B was measured after immunoprecipitation. […]

[2] = Photolysis of the probes in water (time course, quantum yield); type: physicochemical; conditions: chemical actinometry; absorbance at 345 and 350 nm for Examples 9 and 1
Description: A time course for photolysis of the probes in water was determined by measuring product formation by HPLC-MS. […] Based on the time course of photolysis of an aqueous probe with a 40 W lamp, t1/2 values of about 2 min were measured using the 40 W lamp. When a 450 W lamp was used, the t1/2 was reduced to less than 30 sec.
The quantum yield of the photoprobes was determined from the number of photons absorbed and the number of moles of photolysis product that were formed. The number of photons absorbed was determined by chemical actinometry, using the method of Parker (26). The moles of irradiated product produced over time was measured by measuring the absorbance at 345 and 350 nm for Examples 9 and 1 respectively. The quantum yield was calculated to be 0.83 and 0.74 for Examples 9 and 1 respectively.

Row | SMILES | cell permeability (share of probe associated with the cell) [1] | quantum yield [2]
1 | NC(=O)[C@H](Cc1ccc(C(F)(F)P(=O)(O)O)c(Br)c1)NC(=O)[C@H](Cc1ccc(C(F)(F)P(=O)(O)O)c(Br)c1)NC(=O)c1cc(I)cc(C2(C(F)(F)F)N=N2)c1 [Example 1, Tetraamnionium 3-bromo-4-(difluoro(phosphonato)methyl)-N-(3-iodo-5-(3-(trifluoromethyl)-3H-diaziren-3-yl)benzoyl)-L-phenylalanyl-3-bromo-4-(difluoro(phosphonato)methyl)-L-phenylalaninamide] | around 10% | 
2 | NC(=O)[C@H](Cc1ccc(C(F)(F)P(=O)(O)O)cc1)NC(=O)[C@H](Cc1ccc(C(F)(F)P(=O)(O)O)cc1)NC(=O)c1cc(I)cc(C2(C(F)(F)F)N=N2)c1 [Example 9, 4-(Difluoro(phosphono)methyl)-N-(3-iodo-5-(3-(trifluoromethyl)-3H-diaziren-3-yl)benzoyl)-L-phenylalanyl-4-(difluoro(phosphono)methyl)-L-phenylalaninamide] |  | 0.83
